pIC50: −log10 of the molar value. Read-outs that look alike come from different tables or passages of the source.
Biological target: T1, human nAChRα6-α3 chimera, in addition to β2 and β3^V273S subunits (Homo sapiens, UniProt P32297+Q15825)
T1 construct: expressed in transfected cells
Assay: fluorescence-based calcium assay: inhibition of nicotine stimulated nAChRα6 activity (FLIPR)
Settings: HEK cell line stably expressing the receptor, 10 min pre-incubation, nicotine EC80, 10-point curve, duplicate wells; for pIC50: read-out: IC50; for IC50: IC50 (μM)
In short: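 HEK cells stably expressing the human α6-α3 chimera with β2 and β3^V273S were loaded with calcium dye at 30° C. Compounds were pre-incubated for 10 min before nicotine at EC80, and the fluorescence change was read on a FLIPR. Ten-point half-log concentration-response, duplicate wells.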

T1 sequence (Q05901 25-458 V273S): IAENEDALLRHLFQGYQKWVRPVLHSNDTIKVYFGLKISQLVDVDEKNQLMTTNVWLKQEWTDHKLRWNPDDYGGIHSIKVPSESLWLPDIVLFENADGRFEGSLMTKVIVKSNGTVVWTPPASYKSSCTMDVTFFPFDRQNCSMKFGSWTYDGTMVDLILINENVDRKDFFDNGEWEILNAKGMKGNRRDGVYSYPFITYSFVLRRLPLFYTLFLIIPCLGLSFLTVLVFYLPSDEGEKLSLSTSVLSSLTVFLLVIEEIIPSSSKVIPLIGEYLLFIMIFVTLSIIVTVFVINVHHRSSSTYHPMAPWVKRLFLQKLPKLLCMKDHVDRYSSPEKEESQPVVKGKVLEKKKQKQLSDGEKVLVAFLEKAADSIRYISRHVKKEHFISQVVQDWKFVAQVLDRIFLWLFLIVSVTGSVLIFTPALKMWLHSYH
T1 sequence (P17787 26-502, stated change not applied, further chain): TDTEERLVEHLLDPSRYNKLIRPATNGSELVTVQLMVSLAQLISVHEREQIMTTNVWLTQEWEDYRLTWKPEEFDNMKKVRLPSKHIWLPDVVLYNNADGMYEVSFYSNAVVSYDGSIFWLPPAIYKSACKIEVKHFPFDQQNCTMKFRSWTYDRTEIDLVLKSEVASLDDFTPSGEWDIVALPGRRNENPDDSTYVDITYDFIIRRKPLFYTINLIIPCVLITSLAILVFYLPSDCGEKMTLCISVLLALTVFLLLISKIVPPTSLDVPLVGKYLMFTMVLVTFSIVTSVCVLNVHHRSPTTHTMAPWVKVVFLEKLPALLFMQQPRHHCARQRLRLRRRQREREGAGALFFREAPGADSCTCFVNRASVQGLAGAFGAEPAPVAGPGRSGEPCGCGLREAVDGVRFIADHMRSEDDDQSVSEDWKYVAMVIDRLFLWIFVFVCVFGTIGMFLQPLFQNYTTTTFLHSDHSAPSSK
T1 sequence (Q15825+P32297 fused with the stated changes): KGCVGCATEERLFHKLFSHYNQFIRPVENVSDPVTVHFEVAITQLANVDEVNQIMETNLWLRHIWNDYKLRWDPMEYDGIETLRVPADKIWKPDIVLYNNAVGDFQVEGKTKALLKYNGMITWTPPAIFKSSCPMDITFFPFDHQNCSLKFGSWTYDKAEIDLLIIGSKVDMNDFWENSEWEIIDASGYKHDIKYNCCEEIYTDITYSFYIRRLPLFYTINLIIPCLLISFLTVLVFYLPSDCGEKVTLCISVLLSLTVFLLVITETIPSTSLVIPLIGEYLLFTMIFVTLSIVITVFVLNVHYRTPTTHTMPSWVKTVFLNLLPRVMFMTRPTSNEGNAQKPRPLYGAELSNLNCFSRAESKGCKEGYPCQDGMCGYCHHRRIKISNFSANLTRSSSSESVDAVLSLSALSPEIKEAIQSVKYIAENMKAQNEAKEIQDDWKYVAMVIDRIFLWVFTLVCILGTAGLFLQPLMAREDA

SMILES	pIC50	IC50
Cc1nc(NC[C@@H]2CCCN2C)ncc1-c1ccc(C(F)(F)F)cc1F [Example 91b, (S)-5-(2-fluoro-4-(trifluoromethyl)phenyl)-4-methyl-N-((1-methylpyrrolidin-2-yl)methyl)pyrimidin-2-amine]	7.55	
Cc1nc(NC[C@H]2CCCN2C)ncc1-c1ccc(F)cc1C(F)(F)F [Example 92a, (R)-5-(4-fluoro-2-(trifluoromethyl)phenyl)-4-methyl-N-((1-methylpyrrolidin-2-yl)methyl)pyrimidin-2-amine]	7.48	
Cc1nc(NC[C@@H]2CCCN2C)ncc1-c1ccc(F)cc1C(F)(F)F [Example 92b, (S)-5-(4-fluoro-2-(trifluoromethyl)phenyl)-4-methyl-N-((1-methylpyrrolidin-2-yl)methyl)pyrimidin-2-amine]	7.14	
Cc1nc(NC[C@H]2CCCN2C)ncc1-c1ccc(OC(F)(F)F)cc1F [Example 93a, (R)-5-(2-fluoro-4-(trifluoromethoxy)phenyl)-4-methyl-N-((1-methylpyrrolidin-2-yl)methyl)pyrimidin-2-amine]	7.30	
Cc1nc(NC[C@@H]2CCCN2C)ncc1-c1ccc(OC(F)(F)F)cc1F [Example 93b, (S)-5-(2-fluoro-4-(trifluoromethoxy)phenyl)-4-methyl-N-((1-methylpyrrolidin-2-yl)methyl)pyrimidin-2-amine]	7.96	
Cc1nc(NC[C@H]2CCCN2)ncc1-c1ccc(F)cc1F [Example 94a, (R)-5-(2,4-difluorophenyl)-4-methyl-N-(pyrrolidin-2-ylmethyl)pyrimidin-2-amine]	8.30	
Cc1nc(NC[C@H]2CCCN2CC(F)(F)F)ncc1-c1ccc(F)cc1F [Example 95a, (R)-5-(2,4-difluorophenyl)-4-methyl-N-((1-(2,2,2-trifluoroethyl)pyrrolidin-2-yl)methyl)pyrimidin-2-amine]	7.32	
Cc1nc(NC[C@@H]2CCCN2CC(F)(F)F)ncc1-c1ccc(F)cc1F [Example 95b, (S)-5-(2,4-difluorophenyl)-4-methyl-N-((1-(2,2,2-trifluoroethyl)pyrrolidin-2-yl)methyl)pyrimidin-2-amine]	7.15	
CCN1CCCC1CNc1ncc(-c2ccc(C(F)(F)F)cc2F)c(C)n1 (stereo not drawn) [Example 98, N-((1-ethylpyrrolidin-2-yl)methyl)-5-(2-fluoro-4-(trifluoromethyl)phenyl)-4-methyl-pyrimidin-2-amine]	7.17	
Cc1nc(NCC2CCN(C)C2)ncc1-c1ccc(C(F)(F)F)cc1F (stereo not drawn) [Example 99, 5-(2-fluoro-4-(trifluoromethyl)phenyl)-4-methyl-N-((1-methylpyrrolidin-3-yl)methyl)pyrimidin-2-amine]	7.08	
Cc1nc(N[C@H]2CCN(C(C)C)C2)ncc1-c1ccc(C(F)(F)F)cc1F [Example 100, (S)-5-(2-fluoro-4-(trifluoromethyl)phenyl)-N-(1-isopropylpyrrolidin-3-yl)-4-methyl-pyrimidin-2-amine]	6.96	
Cc1nc(NCC2CCN(C)CC2)ncc1-c1ccc(C(F)(F)F)cc1F [Example 101, 5-(2-fluoro-4-(trifluoromethyl)phenyl)-4-methyl-N-((1-methyl-4-piperidinyl)methyl)pyrimidin-2-amine]	6.96	
Cc1nc(NC[C@H]2CCCN2)ncc1-c1ccc(C(F)(F)F)cc1F [Example 102, (R)-5-(2-fluoro-4-(trifluoromethyl)phenyl)-4-methyl-N-(pyrrolidin-2-ylmethyl)pyrimidin-2-amine]	8.30	
Cc1nc(NC[C@@H]2CCCN2)ncc1-c1ccc(C(F)(F)F)cc1F [Example 103, (S)-5-(2-fluoro-4-(trifluoromethyl)phenyl)-4-methyl-N-(pyrrolidin-2-ylmethyl)pyrimidin-2-amine]	7.40	
Cc1nc(NCC2CCCCN2)ncc1-c1ccc(C(F)(F)F)cc1F (stereo not drawn) [Example 104, 5-(2-fluoro-4-(trifluoromethyl)phenyl)-4-methyl-N-(2-piperidinylmethyl) pyrimidin-2-amine]	7.57	
Cc1nc(NC[C@H]2CCCCN2)ncc1-c1ccc(C(F)(F)F)cc1F [Example 104a, (R)-5-(2-fluoro-4-(trifluoromethyl)phenyl)-4-methyl-N-(2-piperidinylmethyl)pyrimidin-2-amine]		0.104 µM
Cc1nc(NC[C@@H]2CCCCN2)ncc1-c1ccc(C(F)(F)F)cc1F [Example 104b, (S)-5-(2-fluoro-4-(trifluoromethyl)phenyl)-4-methyl-N-(2-piperidinylmethyl)pyrimidin-2-amine]		0.045 µM
CCN1CCC[C@H]1CNc1ncc(-c2ccc(C(F)(F)F)cc2F)c(C)n1 [Example 105, (S)—N-((1-ethylpyrrolidin-2-yl)methyl)-5-(2-fluoro-4-(trifluoromethyl)phenyl)-4-methyl-pyrimidin-2-amine]	7.30	
Cc1nc(NCCC2CCCN2C)ncc1-c1ccc(C(F)(F)F)cc1F (stereo not drawn) [Example 106, 5-(2-fluoro-4-(trifluoromethyl)phenyl)-4-methyl-N-(2-(1-methylpyrrolidin-2-yl)ethyl)pyrimidin-2-amine]	7.27	
Cc1nc(NCC[C@H]2CCCN2C)ncc1-c1ccc(C(F)(F)F)cc1F [Example 106a, (R)-5-(2-fluoro-4-(trifluoromethyl)phenyl)-4-methyl-N-(2-(1-methylpyrrolidin-2-yl)ethyl)pyrimidin-2-amine]	6.98	
Cc1nc(NCC[C@@H]2CCCN2C)ncc1-c1ccc(C(F)(F)F)cc1F [Example 106b, (S)-5-(2-fluoro-4-(trifluoromethyl)phenyl)-4-methyl-N-(2-(1-methylpyrrolidin-2-yl)ethyl)pyrimidin-2-amine]	6.86	
Cc1nc(NCC2CCCN(C)C2)ncc1-c1ccc(C(F)(F)F)cc1F (stereo not drawn) [Example 107, 5-(2-fluoro-4-(trifluoromethyl)phenyl)-4-methyl-N-((1-methyl-3-piperidinyl)methyl)pyrimidin-2-amine]	6.81	
Cc1nc(NCC2CN(C)CCO2)ncc1-c1ccc(C(F)(F)F)cc1F (stereo not drawn) [Example 108, 5-(2-fluoro-4-(trifluoromethyl)phenyl)-4-methyl-N-((4-methylmorpholin-2-yl)methyl)pyrimidin-2-amine]	7.37	
Cc1nc(N[C@H]2CCCC[C@@H]2N(C)C)ncc1-c1ccc(C(F)(F)F)cc1F [Example 109, (1S,2S)—N^1-(5-(2-fluoro-4-(trifluoromethyl)phenyl)-4-methyl-pyrimidin-2-yl)-N^2,N^2-dimethyl-cyclohexane-1,2-diamine]	7.02	
Cc1nc(N[C@@H]2CCNC2)ncc1-c1ccc(C(F)(F)F)cc1F [Example 110, (R)-5-(2-fluoro-4-(trifluoromethyl)phenyl)-4-methyl-N-(pyrrolidin-3-yl)pyrimidin-2-amine]	7.27	
Cc1nc(N[C@H]2CC[C@H](N)C2)ncc1-c1ccc(C(F)(F)F)cc1F [Example 111, (1S,3S)—N^3-(5-(2-fluoro-4-(trifluoromethyl)phenyl)-4-methyl-pyrimidin-2-yl)cyclopentane-1,3-diamine]	7.05	
Cc1nc(NC[C@@H]2CCCNC2)ncc1-c1ccc(C(F)(F)F)cc1F [Example 113, (R)-5-(2-fluoro-4-(trifluoromethyl)phenyl)-4-methyl-N-((3-piperidinyl)methyl)pyrimidin-2-amine]	7.35	

Reference: patent US20240059677A1, “SUBSTITUTED PYRIMIDINE DERIVATIVES AS NICOTINIC ACETYLCHOLINESTERASE RECEPTOR ALPHA 6 MODULATOR” (priority 2020, published 2024)
